# Reference: US5183899A, “Pyrazole derivative” (Takeda Chemical Industries, Ltd., priority 1989, dated 1993)
# Target: T1, angiotensin II receptor (Bos taurus, UniProt P25104)
# T1 construct: An A II receptor membrane fraction was prepared from bovine adrenal cortex; from tissue; host or cells: bovine adrenal cortex, receptor membrane fraction
# T1 sequence (P25104 1-359): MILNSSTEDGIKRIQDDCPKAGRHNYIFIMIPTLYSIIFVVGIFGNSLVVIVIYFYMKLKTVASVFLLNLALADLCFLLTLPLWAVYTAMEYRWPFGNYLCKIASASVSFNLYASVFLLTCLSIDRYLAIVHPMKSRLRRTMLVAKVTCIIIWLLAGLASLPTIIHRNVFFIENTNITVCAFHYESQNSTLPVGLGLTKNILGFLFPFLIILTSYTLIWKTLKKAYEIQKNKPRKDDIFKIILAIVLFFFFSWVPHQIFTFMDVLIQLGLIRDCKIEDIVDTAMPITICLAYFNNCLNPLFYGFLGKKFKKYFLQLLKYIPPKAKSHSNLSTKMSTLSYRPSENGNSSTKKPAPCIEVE
# Experiment: Inhibition of binding of angiotensin II to angiotensin receptors (125I-angiotensin II binding, receptor membrane fraction from bovine adrenal cortex)
# Details: 125I-A II, room temperature, 1 hour; for inhibition at 10 µM: 1 × 10^-5 (M); for inhibition at 1 µM: 1 × 10^-6 (M)
# Procedure: Inhibition of binding of angiotensin II to angiotensin receptors
# An experiment of inhibition of angiotensin II (A (II) receptor binding was conducted according to the modified Douglas et al's method [Endocrinology,102, 685-695 (1978)]. An A II receptor membrane fraction was prepared from bovine adrenal cortex.
# the compound of the present invention (10^-6 -10^-5 M) and ^125 I-angiotensin II (^125 I-A II) (1.85 kBq/50 μl) were added to the receptor membrane fraction and incubated at room temperature for 1 hour. Bound and free ^125 I-A II's were separated through a filter (Whatman GF/B filter), and the radioactivity of ^125 I-A II bound to the receptor was measured.
smiles,measurement,value
CCCCc1cc(C(=O)OC(C)C)nn1Cc1ccc(-c2ccccc2-c2nn[nH]n2)cc1 [compound 17],inhibition at 10 µM,98%
same,inhibition at 1 µM,91%
CCCCc1cc(C(=O)NCCC)nn1Cc1ccc(-c2ccccc2-c2nn[nH]n2)cc1 [compound 13],inhibition at 10 µM,99%
same,inhibition at 1 µM,85%
CCCCc1cc(C(=O)OCC)nn1Cc1ccc(-c2ccccc2-c2nn[nH]n2)cc1 [compound 1],inhibition at 10 µM,92%
same,inhibition at 1 µM,75%
CCCCc1cc(C(=O)NC(C)(C)C)nn1Cc1ccc(-c2ccccc2-c2nn[nH]n2)cc1 [compound 3],inhibition at 10 µM,94%
same,inhibition at 1 µM,81%
CCCc1cc(C(=O)OCC)nn1Cc1ccc(-c2ccccc2-c2nn[nH]n2)cc1 [compound 19],inhibition at 10 µM,90%
same,inhibition at 1 µM,62%
CCCCc1cc(C(=O)NCC)nn1Cc1ccc(-c2ccccc2-c2nn[nH]n2)cc1 [compound 12],inhibition at 10 µM,97%
same,inhibition at 1 µM,85%
CCCCc1cc(C(=O)OCC(F)(F)F)nn1Cc1ccc(-c2ccccc2-c2nn[nH]n2)cc1 [compound 20],inhibition at 10 µM,94%
same,inhibition at 1 µM,66%
CCCCc1cc(C(=O)N2CCOCC2)nn1Cc1ccc(-c2ccccc2-c2nn[nH]n2)cc1 [compound 27],inhibition at 10 µM,97%
same,inhibition at 1 µM,92%
CCCCc1cc(C(=O)N2CCCC2)nn1Cc1ccc(-c2ccccc2-c2nn[nH]n2)cc1 [compound 25],inhibition at 10 µM,96%
same,inhibition at 1 µM,77%
CCCCc1cc(C(=O)NC2Cc3ccccc3C2)nn1Cc1ccc(-c2ccccc2-c2nn[nH]n2)cc1 [compound 8],inhibition at 10 µM,95%
same,inhibition at 1 µM,86%
CCCCc1cc(C(=O)OC)nn1Cc1ccc(-c2ccccc2-c2nn[nH]n2)cc1 [compound 22],inhibition at 10 µM,90%
same,inhibition at 1 µM,61%
CCCCc1cc(C(=O)NC2CCCCC2)nn1Cc1ccc(-c2ccccc2-c2nn[nH]n2)cc1 [compound 5],inhibition at 10 µM,98%
same,inhibition at 1 µM,93%
CCCCNC(=O)c1cc(CCCC)n(Cc2ccc(-c3ccccc3-c3nn[nH]n3)cc2)n1 [compound 2],inhibition at 10 µM,95%
same,inhibition at 1 µM,80%
CCCCc1cc(C(=O)Nc2ccccc2)nn1Cc1ccc(-c2ccccc2-c2nn[nH]n2)cc1 [compound 7],inhibition at 10 µM,97%
same,inhibition at 1 µM,91%
CCCCc1cc(C(=O)NCc2ccccc2)nn1Cc1ccc(-c2ccccc2-c2nn[nH]n2)cc1 [compound 6],inhibition at 10 µM,95%
same,inhibition at 1 µM,83%
CCCCc1cc(C(=O)N2CCC(C(c3ccccc3)c3ccccc3)CC2)nn1Cc1ccc(-c2ccccc2-c2nn[nH]n2)cc1 [compound 32],inhibition at 10 µM,88%
same,inhibition at 1 µM,32%
CCCCc1cc(C(=O)NCCOC)nn1Cc1ccc(-c2ccccc2-c2nn[nH]n2)cc1 [compound 15],inhibition at 10 µM,95%
same,inhibition at 1 µM,88%
CCCCc1cc(C(=O)N2CCN(C(c3ccccc3)c3ccccc3)CC2)nn1Cc1ccc(-c2ccccc2-c2nn[nH]n2)cc1 [compound 31],inhibition at 10 µM,89%
same,inhibition at 1 µM,38%
CCCCc1cc(C(N)=O)nn1Cc1ccc(-c2ccccc2-c2nn[nH]n2)cc1 [compound 14],inhibition at 10 µM,93%
same,inhibition at 1 µM,75%
CCCCc1cc(C(=O)NOCc2ccccc2)nn1Cc1ccc(-c2ccccc2-c2nn[nH]n2)cc1 [compound 9],inhibition at 10 µM,96%
same,inhibition at 1 µM,73%
CCCCc1cc(C(=O)NC(C)C)nn1Cc1ccc(-c2ccccc2-c2nn[nH]n2)cc1 [compound 16],inhibition at 10 µM,95%
same,inhibition at 1 µM,91%
CCCCCc1cc(C(=O)OCC)nn1Cc1ccc(-c2ccccc2-c2nn[nH]n2)cc1 [compound 18],inhibition at 10 µM,88%
same,inhibition at 1 µM,54%
